What was measured:
hMC4R = hMC4R (Homo sapiens, UniProt P32245); details: saturation binding, Figure 2
melanocortin receptors = details: ref [28]; cited from earlier work

hMC4R, sequence (P32245 whole entry): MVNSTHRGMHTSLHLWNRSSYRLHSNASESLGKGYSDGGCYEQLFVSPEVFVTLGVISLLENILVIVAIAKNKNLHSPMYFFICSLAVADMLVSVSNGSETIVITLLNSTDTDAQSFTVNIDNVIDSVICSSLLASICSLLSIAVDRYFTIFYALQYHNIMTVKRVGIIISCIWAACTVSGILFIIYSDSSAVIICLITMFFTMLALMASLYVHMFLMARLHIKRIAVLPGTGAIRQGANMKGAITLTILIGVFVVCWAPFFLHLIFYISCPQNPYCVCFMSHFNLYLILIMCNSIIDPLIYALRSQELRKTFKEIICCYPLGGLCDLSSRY

non-specific binding relative to probes 3 and 4 (hMC4R) [%] | Compound | off-rate (melanocortin receptors)
20 | N=C(N)NCCC[C@H](NC(=O)[C@@H](Cc1ccccc1)NC(=O)[C@H](Cc1c[nH]cn1)NC(=O)COCC(=O)NCCCOCCOCCOCCCNC(=O)CN(CCN(CCN(CC(=O)O)CC(=O)O)CC(=O)O)CC(=O)O)C(=O)N[C@@H](Cc1c[nH]c2ccccc12)C(N)=O [Probe 2, Eu-DTPA-PEGO-MSH(4)] | –
– | Ac-Ser-Tyr-Ser-Nle-Glu-His-DPhe-Arg-Trp-Gly-Lys-Pro-Val-NH2 [NDP-α-MSH] | approximately eight

From PMC3773999 (Bioorganic & medicinal chemistry, 2013)
